In patent US6610738B2, “N-disubstituted carbamoyloxy flavones” (priority 2000, dated 2003):
Where two headings read alike, the source gives them in different places.

Legend:
acetylcholine esterase [1] = experiment: AChE inhibition ex vivo (Table II); format: in vivo
acetylcholine esterase [2] = target: acetylcholine esterase (Homo sapiens, UniProt P22303); experiment: biochemical
[3] = time not given, read-out: AchE inhibition IC50
[4] = read-out: AchE inhibition IC50 (5′)
[5] = read-out: AchE inhibition IC50 (30′)

Chain of acetylcholine esterase (Homo sapiens, UniProt P22303) (P22303 32-614): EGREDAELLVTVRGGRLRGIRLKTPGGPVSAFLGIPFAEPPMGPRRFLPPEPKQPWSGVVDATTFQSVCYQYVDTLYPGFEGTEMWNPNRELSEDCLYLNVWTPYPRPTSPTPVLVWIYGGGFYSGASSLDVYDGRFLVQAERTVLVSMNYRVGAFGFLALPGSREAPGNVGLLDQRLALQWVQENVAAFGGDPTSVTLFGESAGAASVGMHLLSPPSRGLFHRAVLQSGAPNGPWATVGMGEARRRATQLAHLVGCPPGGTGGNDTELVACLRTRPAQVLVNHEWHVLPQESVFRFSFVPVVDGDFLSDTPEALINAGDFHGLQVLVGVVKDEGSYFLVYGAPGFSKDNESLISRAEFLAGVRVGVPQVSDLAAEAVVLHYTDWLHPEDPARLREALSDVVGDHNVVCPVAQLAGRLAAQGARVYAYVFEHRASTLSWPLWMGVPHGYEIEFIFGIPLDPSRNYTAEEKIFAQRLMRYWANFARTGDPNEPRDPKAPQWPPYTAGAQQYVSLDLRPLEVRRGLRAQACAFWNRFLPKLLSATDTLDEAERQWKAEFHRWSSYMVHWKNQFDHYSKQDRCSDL

SMILES | melting point [°C] | IC50 (acetylcholine esterase [2]; [3]) [µM] | other results
COc1ccccc1-c1cc(=O)c2ccc(OC(=O)N(C)C)cc2o1 | 133.5 to 135 |  | 
CN(C)C(=O)Oc1cccc(-c2cc(=O)c3cc(N)ccc3o2)c1 | 157 to 159 |  | 
CN(C)C(=O)Oc1ccc2c(=O)cc(-c3ccccc3OC(=O)N(C)C)oc2c1 | 145.5 to 147 |  | 
CCOc1ccc2c(=O)cc(-c3ccccc3OC(=O)N(C)C)oc2c1 | 166 to 168 |  | 
CCN(C)C(=O)Oc1ccccc1-c1cc(=O)c2ccccc2o1 |  | 3.5 | AchE inhibition Ex vivo (acetylcholine esterase [1]; at 50 μM/kg): 14% at 50 μM/kg
COc1ccc(-c2cc(=O)c3cc([N+](C)(C)C)ccc3o2)cc1 |  |  | IC50 (acetylcholine esterase [2]; [4]): 5.5 µM; IC50 (acetylcholine esterase [2]; [5]): 6 µM
CN(C)CCOc1cccc(-c2cc(=O)c3ccccc3o2)c1 |  |  | IC50 (acetylcholine esterase [2]; [4]): 10 µM; IC50 (acetylcholine esterase [2]; [5]): 5.8 µM
CCN(C)C(=O)Oc1cccc(-c2cc(=O)c3ccccc3o2)c1 |  | 41 | 
CN(C)C(=O)Oc1cccc(-c2cc(=O)c3ccccc3o2)c1 |  | 1.4 | AchE inhibition Ex vivo (acetylcholine esterase [1]; at 40 μM/kg): 42% at 40 μM/kg
CCOc1ccc2c(=O)cc(-c3ccccc3OC(=O)N(C)CC)oc2c1 | 91 to 93.5 |  | 
CN(C)C(=O)Oc1ccccc1-c1cc(=O)c2ccccc2o1 |  | 2.65 | AchE inhibition Ex vivo (acetylcholine esterase [1]; at 40 μM/kg): 29% at 40 μM/kg
C[N+](C)(C)c1ccc2oc(-c3ccccc3)cc(=O)c2c1 |  |  | IC50 (acetylcholine esterase [2]; [4]): 10.5 µM; IC50 (acetylcholine esterase [2]; [5]): 48 µM
CN(C)C(=O)Oc1cccc(-c2cc(=O)c3cc(N(C)C)ccc3o2)c1 | 167 to 168 |  | 
